We go through 25 molecules from paper PMC9519869, “Synthesis, biological evaluation, and molecular modeling studies of new benzoxazole derivatives as PARP-2 inhibitors targeting breast cancer” (Scientific Reports, 2022).

Data set [1] deals with T1, PARP-2 enzyme (Homo sapiens, UniProt Q9UGN5).
T1 construct: purchased BPS Bioscience 80,581
The data set can be described thus: Poly (ADP-ribose) polymerase 2 (PARP-2) inhibition assay (colorimetric kit). The format is biochemical. The conditions noted are these: for IC50: in vitro enzyme assay. Here is the method: Results were expressed as IC50 values (Table 2).
The PARP-2 inhibitory activity of the test compounds was assayed using PARP-2 Colorimetric Activity Assay Kit (BPS Bioscience, catalog 80,581, San Diego, CA, USA) following the manufacturer’s protocol. Briefly, histone protein mixture was coated on a 96-well microtiter plate and incubated at 4 °C overnight, washed with phosphate-buffered saline with tween-20 (PBST) three times then, the wells were blocked by adding blocking buffer 3 and incubated at room temperature for 60–90 min. After that, the plate was washed with PBST buffer three times. The master mixture which contains the PARP buffer, PARP assay mixture, activated DNA and distilled water was added to each well then, the inhibitor solution (test compound) was added. The reaction was initiated by adding PARP-2 enzyme to the wells and the plate was incubated for 1 h at room temperature. After 1 h, the reaction mixture was discarded, and the plate was washed with PBST buffer three times. Finally, the plate was treated with Streptavidin–Horseradish Peroxidase (HRP) and incubated for 30 min at room temperature and then washed with PBST buffer. The colorimetric HRP substrate was added to each well and incubated at room temperature until the positive control well developed blue color. Sulphuric acid was added to each well after the blue color development. The absorbance was read at 450 nm using UV/Vis spectrophotometer microplate reader.
Suppl. S2. In vitro PARP-2 enzyme inhibition assay
Researcher : Dr. Nadeen Ghobashy email:elghobashynadeen@gmail.com mob.01008873340
Reader : ROBONIK P2000 Eliza Reader wl 450 nm

In data set [2] the test system is MDA-MB-231. In words: In vitro cytotoxicity screening, MTT assay. Particulars: Homo sapiens, MDA-MB-231, 24 h, read-out: In vitro Cytotoxicity (IC50, µM) MDA-MB-231. In general terms: Tetrazolium dyes change colour on reduction, which living cells bring about.
From the text: Two human breast cancer cell lines, namely, MDA-MB-231 and MCF-7 were obtained from American Type Culture Collection (ATCC) via a holding company for biological products and vaccines (VACSERA), Cairo, Egypt. […] The reagents used were RPMI-1640 medium, MTT, DMSO (sigma co., St. Louis, USA), and Fetal bovine serum (GIBCO, UK). […] MTT is a colorimetric assay based on the conversion of the yellow tetrazolium bromide (MTT) to a purple formazan derivative by mitochondrial succinate dehydrogenase in viable cells. Cell lines were cultured in RPMI-1640 medium with 10% foetal bovine serum. Antibiotics added were 100 units/ml penicillin and 100 µg/ml streptomycin maintained at 37 °C in a 5% CO2 incubator. The cell lines were seeded at a density of approximately 1.0 × 10 ^4 cells/well in a 96-well plate at 37 °C for 48 h under 5% CO2. Different concentrations of compounds were added and incubated for 24 h. After 24 h of drug treatment, 20 µl of MTT staining solution at 5 mg/ml was added to each well and incubated for 4 h at 37 °C. After 4 h, 100 µl of dimethyl sulfoxide (DMSO) were added into each well to dissolve the purple formazan crystals formed. The absorbance was recorded at 570 nm using a plate reader (EXL 800, USA). The relative cell viability in percentage was calculated as (A570 of treated samples/A570 of untreated sample) X 100 [22],[23].

As a reminder, the IC50 is the concentration needed to halve the response being measured. What is called melting point is the temperature of the solid-liquid transition.

Structures are written as SMILES. Some results are limits rather than exact numbers.

T1 sequence (Q9UGN5 whole entry): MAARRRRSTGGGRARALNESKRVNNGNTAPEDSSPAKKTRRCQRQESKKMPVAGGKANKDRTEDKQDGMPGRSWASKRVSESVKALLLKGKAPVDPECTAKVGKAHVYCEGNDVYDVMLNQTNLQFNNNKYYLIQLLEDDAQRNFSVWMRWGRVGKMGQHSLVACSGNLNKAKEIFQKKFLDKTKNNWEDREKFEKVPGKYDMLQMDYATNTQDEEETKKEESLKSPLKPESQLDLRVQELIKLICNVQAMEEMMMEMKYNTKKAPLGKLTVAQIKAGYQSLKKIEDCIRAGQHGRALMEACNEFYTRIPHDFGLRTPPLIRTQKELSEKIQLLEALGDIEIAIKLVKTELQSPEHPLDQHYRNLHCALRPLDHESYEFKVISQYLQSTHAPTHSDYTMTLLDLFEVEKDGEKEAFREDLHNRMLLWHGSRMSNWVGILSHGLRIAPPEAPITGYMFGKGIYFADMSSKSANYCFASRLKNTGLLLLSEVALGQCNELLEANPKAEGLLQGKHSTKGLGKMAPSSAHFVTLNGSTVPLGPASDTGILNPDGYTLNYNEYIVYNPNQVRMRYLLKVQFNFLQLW

Turning to `O=C(CCNCCCc1ccccc1)Nc1ccc(-c2nc3cc(Cl)ccc3o2)cc1` [Compound 25, N-(4-(5-chlorobenzoxazol-2-yl)phenyl)-3-((3-phenylpropyl)amino)propanamide], the melting point was 87 to 89 °C. Besides, the “%inh of PARP-2 (Table S2 raw data)” value in data set [1] (conc 0.01 (ng/ml)) is recorded as 36.11%. Also, the “%inh of PARP-2 (Table S2 raw data)” value in data set [1] (conc 0.1 (ng/ml)) was 47.92%. Further, in data set [1] (conc 1 (ng/ml)), the “%inh of PARP-2 (Table S2 raw data)” value is reported as 73.45%. In addition, the “%inh of PARP-2 (Table S2 raw data)” value in data set [1] (conc 10 (ng/ml)) is on record as 88.59%. The same molecule had an IC50 in data set [1] of 0.074 ± 0.004 µM. For the same molecule, the IC50 in data set [2] worked out at 15.6 ± 1.2 µM.

For the molecule `O=C(CCNCc1ccccc1)Nc1ccc(-c2nc3cc(Cl)ccc3o2)cc1` [Compound 23, 3-(benzylamino)-N-(4-(5-chlorobenzoxazol-2-yl)phenyl)propanamide], the melting point fell in the range of 109 to 111 °C. The IC50 in data set [2] came to 62.1 ± 3.4 µM.

Regarding `O=C(CCNCCc1ccccc1)Nc1ccc(-c2nc3cc(Cl)ccc3o2)cc1` [Compound 24, N-(4-(5-chlorobenzoxazol-2-yl)phenyl)-3-(phenethylamino)propanamide], the melting point was in the range of 73 to 75 °C. In addition, the IC50 in data set [2] is 26.5 ± 2.1 µM.

In the case of `[N-]=[N+]=Nc1ccc(-c2nc3cc(Cl)ccc3o2)cc1` [Compound 28, 2-(4-azidophenyl)-5-chlorobenzoxazole], the melting point was 167 to 169 °C. Also, the IC50 in data set [2] was more than 100 µM.

On to `CCN1CCN(CC(=O)Nc2ccc(-c3nc4cc(Cl)ccc4o3)cc2)CC1` [Compound 9, N-(4-(5-chlorobenzoxazol-2-yl)phenyl)-2-(4-ethylpiperazin-1-yl)acetamide], for which the melting point was in the range of 153 to 155 °C. For the same molecule, the IC50 in data set [2] is 39.5 ± 2.6 µM.

Molecule `COc1ccccc1N1CCN(CCC(=O)Nc2ccc(-c3nc4cc(Cl)ccc4o3)cc2)CC1` [Compound 19, N-(4-(5-chlorobenzoxazol-2-yl)phenyl)-3-(4-(2-methoxyphenyl)piperazin-1-yl)propanamide] displayed a melting point of 211 to 213 °C. In addition, in data set [2], the IC50 is 22.5 ± 1.9 µM.

Take `COc1ccccc1N1CCN(CC(=O)Nc2ccc(-c3nc4cc(Cl)ccc4o3)cc2)CC1` [Compound 17, N-(4-(5-chlorobenzoxazol-2-yl)phenyl)-2-(4-(2-methoxyphenyl)piperazin-1-yl)acetamide]: the melting point fell in the range of 218 to 220 °C. Moreover, in data set [2], the IC50 stood at 48 ± 2.9 µM.

Molecule `O=C(CNCc1ccccc1)Nc1ccc(-c2nc3cc(Cl)ccc3o2)cc1` [Compound 20, 2-(benzylamino)-N-(4-(5-chlorobenzoxazol-2-yl)phenyl)acetamide] displayed a melting point of 158 to 160 °C. In addition, the IC50 in data set [2] amounted to 47.6 ± 2.8 µM.

As to `Nc1ccc(-c2nc3cc(Cl)ccc3o2)cc1` [Compound 3, 4-(5-chlorobenzoxazol-2-yl)aniline], in data set [2], the IC50 turned out to be 24 ± 1.8 µM.

As for `O=C(CN1CCN(Cc2ccccc2)CC1)Nc1ccc(-c2nc3cc(Cl)ccc3o2)cc1` [Compound 10, 2-(4-benzylpiperazin-1-yl)-N-(4-(5-chlorobenzoxazol-2-yl)phenyl)acetamide], the melting point was 195 to 197 °C. Further, the IC50 in data set [2] was 71.7 ± 3.5 µM.

On to `O=C(CN1CCCCC1)Nc1ccc(-c2nc3cc(Cl)ccc3o2)cc1` [Compound 6, N-(4-(5-chlorobenzoxazol-2-yl)phenyl)-2-(piperidin-1-yl)acetamide], for which the melting point was 180 to 182 °C. For the same molecule, the IC50 in data set [2] is 42.5 ± 2.8 µM.

Molecule `O=C(CCN1CCN(Cc2ccccc2)CC1)Nc1ccc(-c2nc3cc(Cl)ccc3o2)cc1` [Compound 15, 3-(4-benzylpiperazin-1-yl)-N-(4-(5-chlorobenzoxazol-2-yl)phenyl)propanamide] displayed a melting point of 182 to 184 °C. Besides, the IC50 in data set [2] amounted to 35.3 ± 2.5 µM.

As to `O=C(CCl)Nc1ccc(-c2nc3cc(Cl)ccc3o2)cc1` [Compound 4, 2-chloro-N-(4-(5-chlorobenzoxazol-2-yl)phenyl)acetamide], the melting point was 218 to 220 °C. The IC50 in data set [2] came out at 43.2 ± 2.7 µM.

`CCN1CCN(CCC(=O)Nc2ccc(-c3nc4cc(Cl)ccc4o3)cc2)CC1` [Compound 14, N-(4-(5-chlorobenzoxazol-2-yl)phenyl)-3-(4-ethylpiperazin-1-yl)propanamide] showed a melting point of 167 to 169 °C. In data set [1] (conc 0.01 (ng/ml)), the “%inh of PARP-2 (Table S2 raw data)” value is on record as 33.28%. Besides, in data set [1] (conc 0.1 (ng/ml)), the “%inh of PARP-2 (Table S2 raw data)” value worked out at 46.83%. In data set [1] (conc 1 (ng/ml)), the “%inh of PARP-2 (Table S2 raw data)” value stood at 75.72%. Further, in data set [1] (conc 10 (ng/ml)), the “%inh of PARP-2 (Table S2 raw data)” value is recorded as 90.54%. In data set [1], this molecule came in with an IC50 of 0.084 ± 0.005 µM. The IC50 in data set [2] was 10.8 ± 0.9 µM.

As to `O=C(CN1CCOCC1)Nc1ccc(-c2nc3cc(Cl)ccc3o2)cc1` [Compound 7, N-(4-(5-chlorobenzoxazol-2-yl)phenyl)-2-morpholinoacetamide], the melting point is 178 to 180 °C. Further, the IC50 in data set [2] was determined as 51.6 ± 3 µM.

Take `CN1CCN(CC(=O)Nc2ccc(-c3nc4cc(Cl)ccc4o3)cc2)CC1` [Compound 8, N-(4-(5-chlorobenzoxazol-2-yl)phenyl)-2-(4-methylpiperazin-1-yl)acetamide]: the melting point fell in the range of 179 to 181 °C. In data set [2], the IC50 came out at 30.9 ± 2.3 µM.

As to `O=C(CCCl)Nc1ccc(-c2nc3cc(Cl)ccc3o2)cc1` [Compound 5, 3-chloro-N-(4-(5-chlorobenzoxazol-2-yl)phenyl)propanamide], the melting point was in the range of 210 to 212 °C. In addition, the IC50 in data set [2] turned out to be 55.7 ± 3.2 µM.

`CCN(CC)CC(=O)Nc1ccc(-c2nc3cc(Cl)ccc3o2)cc1` [Compound 26, N-(4-(5-chlorobenzoxazol-2-yl)phenyl)-2-(diethylamino)acetamide] came in with a melting point of 133 to 135 °C. The “%inh of PARP-2 (Table S2 raw data)” value in data set [1] (conc 0.01 (ng/ml)) turned out to be 21.36%. For the same molecule, the “%inh of PARP-2 (Table S2 raw data)” value in data set [1] (conc 0.1 (ng/ml)) worked out at 38.75%. In addition, in data set [1] (conc 1 (ng/ml)), the “%inh of PARP-2 (Table S2 raw data)” value is recorded as 55.9%. Also, the “%inh of PARP-2 (Table S2 raw data)” value in data set [1] (conc 10 (ng/ml)) is reported as 86.92%. Moreover, the IC50 in data set [1] came to 0.292 ± 0.016 µM. Further, in data set [2], the IC50 was determined as 18.6 ± 1.3 µM.

The molecule `O=C(CN1CCN(c2ccccc2)CC1)Nc1ccc(-c2nc3cc(Cl)ccc3o2)cc1` [Compound 16, N-(4-(5-chlorobenzoxazol-2-yl)phenyl)-2-(4-phenylpiperazin-1-yl)acetamide] came in with a melting point of 231 to 233 °C. Further, in data set [2], the IC50 was found to be 78.8 ± 3.8 µM.

Molecule `O=C(CCN1CCN(c2ccccc2)CC1)Nc1ccc(-c2nc3cc(Cl)ccc3o2)cc1` [Compound 18, N-(4-(5-chlorobenzoxazol-2-yl)phenyl)-3-(4-phenylpiperazin-1-yl)propanamide] had a melting point of 239 to 241 °C. Also, the IC50 in data set [2] came to 19.2 ± 1.6 µM.

For the molecule `O=C(CNCCc1ccccc1)Nc1ccc(-c2nc3cc(Cl)ccc3o2)cc1` [Compound 21, N-(4-(5-chlorobenzoxazol-2-yl)phenyl)-2-(phenethylamino)acetamide], the melting point was in the range of 129 to 131 °C. For the same molecule, the “%inh of PARP-2 (Table S2 raw data)” value in data set [1] (conc 0.01 (ng/ml)) amounted to 20.88%. Moreover, the “%inh of PARP-2 (Table S2 raw data)” value in data set [1] (conc 0.1 (ng/ml)) is 36.15%. The “%inh of PARP-2 (Table S2 raw data)” value in data set [1] (conc 1 (ng/ml)) is recorded as 52.41%. Moreover, in data set [1] (conc 10 (ng/ml)), the “%inh of PARP-2 (Table S2 raw data)” value is listed as 81.94%. Inhibition in data set [1] was half-maximal at 0.406 ± 0.022 µM (IC50). In addition, in data set [2], the IC50 is 12.2 ± 1 µM.

Regarding `O=C(CNCCCc1ccccc1)Nc1ccc(-c2nc3cc(Cl)ccc3o2)cc1` [Compound 22, N-(4-(5-chlorobenzoxazol-2-yl)phenyl)-2-((3-phenylpropyl)amino)acetamide], the melting point is 93 to 95 °C. Moreover, in data set [1] (conc 0.01 (ng/ml)), the “%inh of PARP-2 (Table S2 raw data)” value is 27.08%. Further, the “%inh of PARP-2 (Table S2 raw data)” value in data set [1] (conc 0.1 (ng/ml)) is reported as 33.43%. In data set [1] (conc 1 (ng/ml)), the “%inh of PARP-2 (Table S2 raw data)” value was found to be 58.97%. The “%inh of PARP-2 (Table S2 raw data)” value in data set [1] (conc 10 (ng/ml)) is on record as 86.49%. This molecule also showed an IC50 in data set [1] of 0.267 ± 0.015 µM. For the same molecule, in data set [2], the IC50 worked out at 17.4 ± 1.4 µM.

Regarding `CCOC(=O)c1nnn(-c2ccc(-c3nc4cc(Cl)ccc4o3)cc2)c1C` [Compound 29, Ethyl 1-(4-(5-chlorobenzoxazol-2-yl)phenyl)-5-methyl-1H-1,2,3-triazole-4-carboxylate], the melting point lay within 251 to 253 °C. In addition, the IC50 in data set [2] was determined as 76 ± 3.8 µM.

On to `CC(=O)c1nnn(-c2ccc(-c3nc4cc(Cl)ccc4o3)cc2)c1C` [Compound 30, 1-(1-(4-(5-chlorobenzoxazol-2-yl)phenyl)-5-methyl-1H-1,2,3-triazol-4-yl)ethan-1-one], for which the melting point fell in the range of 212 to 214 °C. Also, in data set [2], the IC50 was 73.9 ± 3.6 µM.

Regarding `CNC(=O)c1cc(Oc2ccc(NC(=O)Nc3ccc(Cl)c(C(F)(F)F)c3)cc2)ccn1` [Sorafenib, reference compound], the IC50 in data set [2] was determined as 7.47 ± 0.3 µM.
